This note sets out measurements from the supplement of paper PMC11208160.
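Also: IS621 recombinase and bridge RNA in Escherichia coli cells.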

A short description of this data set: recombinant barcode read abundance after kanamycin selection (control-corrected) (log10(CPM+1)); higher = more efficient recombination; sequences stand for … in AGTGCAGAGAAAATCGGCCAGTTTTCTCTGCCTGCAGTCCGCATGCCGT…AGATTTATGCAGCGGACTGCCTTTCTCCCAAAGTGATAAACCGGACAGTATCATGGACCGGTTTTCCCGGTAATCCGTATTTGCAAGGTTGGTTTCACT; site = the 11-nt target. Summed up: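 Reported as log10(CPM+1), each value stands for recombination efficiency. That efficiency is the averaged, control-corrected counts per million of barcodes found at recombinant junctions. Cells from a pooled E. coli library pairing targets with IS621 bridge RNA target-binding loops were plated twice on chloramphenicol/ampicillin LB agar (control) and twice on chloramphenicol/ampicillin/kanamycin with 0.1 mM IPTG.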
For “TTACCAACTTGGGTTCTAACCTGTTGCCT (site TTACCAACTAG)”, the “recombinant barcode read abundance (log10)” value was determined as 1.61.

Consider “TTACCAACTTGGGTTCTAACCTGTTGCCT (site TTACCCACTAG)”, for which the “recombinant barcode read abundance (log10)” value was found to be 0.629.

For “TTACCAACTTGGGTTCTAACCTGTTGCCT (site TTACCGACTAG)”, the “recombinant barcode read abundance (log10)” value turned out to be 0.0912.

As for “TTACCAACTTGGGTTCTAACCTGTTGCCT (site TTACCTACTAG)”, the “recombinant barcode read abundance (log10)” value is 0.12.

Turning to “TTACCGACTTGGGTTCTAACCTGTTGCCT (site TTACCAACTAG)”, the “recombinant barcode read abundance (log10)” value was 1.23.

Turning to “TTACCGACTTGGGTTCTAACCTGTTGCCT (site TTACCCACTAG)”, the “recombinant barcode read abundance (log10)” value came out at 0.242.

Regarding “TTACCGACTTGGGTTCTAACCTGTTGCCT (site TTACCGACTAG)”, the “recombinant barcode read abundance (log10)” value turned out to be 2.33.

Take “TTACCGACTTGGGTTCTAACCTGTTGCCT (site TTACCTACTAG)”: the “recombinant barcode read abundance (log10)” value is 0.0567.

Take “TTACGTCCTTGGGTTCTAACCTGTTGCGG (site TCACGTCCTCC)”: the “recombinant barcode read abundance (log10)” value was 1.31.

“TTACGTCCTTGGGTTCTAACCTGTTGCGG (site TTACGTCCTCC)”: the “recombinant barcode read abundance (log10)” value came to 1.74.

On to “TTAGACCCTTGGGTTCTAACCTGTTGCAG (site AGGTCTACTTG)”, for which the “recombinant barcode read abundance (log10)” value came to 0.0942.

For the sequence “TTAGACCCTTGGGTTCTAACCTGTTGCAG (site TTAGACCCTCT)”, the “recombinant barcode read abundance (log10)” value came to 3.46.

“TTAGACCCTTGGGTTCTAACCTGTTGCCT (site ATAGACCCTAG)”: the “recombinant barcode read abundance (log10)” value came to 1.3.

On to “TTAGACCCTTGGGTTCTAACCTGTTGCCT (site CTAGACCCTAG)”, for which the “recombinant barcode read abundance (log10)” value is 1.11.

As to “TTAGACCCTTGGGTTCTAACCTGTTGCCT (site GTAGACCCTAG)”, the “recombinant barcode read abundance (log10)” value turned out to be 0.341.

“TTAGACCCTTGGGTTCTAACCTGTTGCCT (site TTAGACCCTAG)”: the “recombinant barcode read abundance (log10)” value was determined as 2.99.

For “TTAGACTCTTGGGTTCTAACCTGTTGCCT (site TTAGACTCTAG)”, the “recombinant barcode read abundance (log10)” value was 2.48.

Consider “TTAGACTCTTGGGTTCTAACCTGTTGCCT (site TTCGACGCTAG)”, for which the “recombinant barcode read abundance (log10)” value was 0.172.

As to “TTAGACTCTTGGGTTCTAACCTGTTGCTA (site TTAGACTCTTA)”, the “recombinant barcode read abundance (log10)” value amounted to 2.36.

As to “TTAGACTCTTGGGTTCTAACCTGTTGCTA (site TTAGACTCTTG)”, the “recombinant barcode read abundance (log10)” value is 1.25.

Take “TTAGAGACTTGGGTTCTAACCTGTTGCCT (site TTAGAGACTAG)”: the “recombinant barcode read abundance (log10)” value was found to be 2.32.

“TTAGAGACTTGGGTTCTAACCTGTTGCCT (site TTAGAGCCTAG)”: the “recombinant barcode read abundance (log10)” value was found to be 0.303.

“TTAGAGACTTGGGTTCTAACCTGTTGCCT (site TTAGAGGCTAG)”: the “recombinant barcode read abundance (log10)” value amounted to 1.4.

For “TTAGAGACTTGGGTTCTAACCTGTTGCCT (site TTAGAGTCTAG)”, the “recombinant barcode read abundance (log10)” value turned out to be 0.195.

Take “TTAGATCCTTGGGTTCTAACCTGTTGCAT (site TTAGATCCTAT)”: the “recombinant barcode read abundance (log10)” value stood at 1.62.

For “TTAGATCCTTGGGTTCTAACCTGTTGCAT (site TTAGGTCCTCT)”, the “recombinant barcode read abundance (log10)” value is 0.00789.

On to “TTAGGGCCTTGGGTTCTAACCTGTTGCCT (site TTAGGGACTAG)”, for which the “recombinant barcode read abundance (log10)” value came out at 0.0406.

For “TTAGGGCCTTGGGTTCTAACCTGTTGCCT (site TTAGGGCCTAG)”, the “recombinant barcode read abundance (log10)” value is 0.719.

As to “TTAGGGCCTTGGGTTCTAACCTGTTGCCT (site TTAGGGGCTAG)”, the “recombinant barcode read abundance (log10)” value turned out to be 0.0469.

In the case of “TTAGGGCCTTGGGTTCTAACCTGTTGCCT (site TTAGGGTCTAG)”, the “recombinant barcode read abundance (log10)” value came to 0.0494.

Turning to “TTAGGTCCTTGGGTTCTAACCTGTTGCTT (site TTAAGTCCTAT)”, the “recombinant barcode read abundance (log10)” value came to 0.357.

On to “TTAGGTCCTTGGGTTCTAACCTGTTGCTT (site TTAGGTCCTAA)”, for which the “recombinant barcode read abundance (log10)” value amounted to 1.64.

On to “TTAGTAGCTTGGGTTCTAACCTGTTGCCT (site TTAGTAGCTAG)”, for which the “recombinant barcode read abundance (log10)” value stood at 1.84.

As for “TTAGTAGCTTGGGTTCTAACCTGTTGCCT (site TTAGTCGCTAG)”, the “recombinant barcode read abundance (log10)” value was determined as 0.0769.

As to “TTAGTAGCTTGGGTTCTAACCTGTTGCCT (site TTAGTGGCTAG)”, the “recombinant barcode read abundance (log10)” value is 0.0632.

“TTAGTAGCTTGGGTTCTAACCTGTTGCCT (site TTAGTTGCTAG)”: the “recombinant barcode read abundance (log10)” value was 0.0874.

“TTAGTCCCTTGGGTTCTAACCTGTTGCCT (site TTAGTACCTAG)”: the “recombinant barcode read abundance (log10)” value was found to be 0.113.

On to “TTAGTCCCTTGGGTTCTAACCTGTTGCCT (site TTAGTCCCTAG)”, for which the “recombinant barcode read abundance (log10)” value amounted to 2.42.

In the case of “TTAGTCCCTTGGGTTCTAACCTGTTGCCT (site TTAGTGCCTAG)”, the “recombinant barcode read abundance (log10)” value was found to be 0.202.

As to “TTAGTCCCTTGGGTTCTAACCTGTTGCCT (site TTAGTTCCTAG)”, the “recombinant barcode read abundance (log10)” value came to 0.0847.

For “TTAGTGGCTTGGGTTCTAACCTGTTGCCT (site TTAGTAGCTAG)”, the “recombinant barcode read abundance (log10)” value came to 0.607.

Take “TTAGTGGCTTGGGTTCTAACCTGTTGCCT (site TTAGTCGCTAG)”: the “recombinant barcode read abundance (log10)” value is 0.0499.

“TTAGTGGCTTGGGTTCTAACCTGTTGCCT (site TTAGTGGCTAG)”: the “recombinant barcode read abundance (log10)” value is 0.978.

As for “TTAGTGGCTTGGGTTCTAACCTGTTGCCT (site TTAGTTGCTAG)”, the “recombinant barcode read abundance (log10)” value was found to be 0.0338.

On to “TTATCCGCTTGGGTTCTAACCTGTTGCCT (site CGTAGACCTTA)”, for which the “recombinant barcode read abundance (log10)” value turned out to be 0.0341.

As for “TTATCCGCTTGGGTTCTAACCTGTTGCCT (site TTATCCGCTAG)”, the “recombinant barcode read abundance (log10)” value came to 1.77.

As for “TTATCTCCTTGGGTTCTAACCTGTTGCTT (site TCGTCTCCTAA)”, the “recombinant barcode read abundance (log10)” value amounted to 0.0381.

For the sequence “TTATCTCCTTGGGTTCTAACCTGTTGCTT (site TTATCTCCTAA)”, the “recombinant barcode read abundance (log10)” value is 0.205.

“TTCAAAACTTGGGTTCTAACCTGTTGCCT (site TTCAAAACTAG)”: the “recombinant barcode read abundance (log10)” value was 0.103.

On to “TTCAAAACTTGGGTTCTAACCTGTTGCCT (site TTCAAACCTAG)”, for which the “recombinant barcode read abundance (log10)” value was 0.0651.

As to “TTCAAAACTTGGGTTCTAACCTGTTGCCT (site TTCAAAGCTAG)”, the “recombinant barcode read abundance (log10)” value was determined as 0.0504.

With “TTCAAAACTTGGGTTCTAACCTGTTGCCT (site TTCAAATCTAG)”, the “recombinant barcode read abundance (log10)” value was 0.0229.

In the case of “TTCAAAGCTTGGGTTCTAACCTGTTGCCT (site TTCAAAACTAG)”, the “recombinant barcode read abundance (log10)” value is 0.0225.

As for “TTCAAAGCTTGGGTTCTAACCTGTTGCCT (site TTCAAACCTAG)”, the “recombinant barcode read abundance (log10)” value amounted to 0.0449.

In the case of “TTCAAAGCTTGGGTTCTAACCTGTTGCCT (site TTCAAAGCTAG)”, the “recombinant barcode read abundance (log10)” value amounted to 0.0407.

For “TTCAAAGCTTGGGTTCTAACCTGTTGCCT (site TTCAAATCTAG)”, the “recombinant barcode read abundance (log10)” value turned out to be 0.0721.

On to “TTCACAGCTTGGGTTCTAACCTGTTGCCT (site TTCACACCTAG)”, for which the “recombinant barcode read abundance (log10)” value worked out at 0.0537.

Turning to “TTCACAGCTTGGGTTCTAACCTGTTGCCT (site TTCACAGCTAG)”, the “recombinant barcode read abundance (log10)” value is 0.133.

In the case of “TTCACGCCTTGGGTTCTAACCTGTTGCCT (site TTCACGCCTAG)”, the “recombinant barcode read abundance (log10)” value was 0.187.
